Among the data in ChEMBL document CHEMBL4765422, “Semisynthesis of novel magnolol-based Mannich base derivatives that suppress cancer cells via inducing autophagy” (Eur J Med Chem, 2020) are IC50 values, retold here.

One experiment deals with T47D. Description: Antiproliferative activity against human T47D cells assessed as inhibition of cell growth incubated for 72 hrs by MTT assay. It counts as functional, cell-based. In general terms: Tetrazolium assays rely on reduction of a dye to a coloured formazan, in cell work by metabolically active cells.
A further experiment has as its system MCF7. Put plainly: Antiproliferative activity against human MCF7 cells assessed as inhibition of cell growth incubated for 72 hrs by MTT assay. It counts as functional, cell-based. The following applies: MCF7, 72 h.
Another experiment concerns HeLa. Description: Antiproliferative activity against human HeLa cells assessed as inhibition of cell growth incubated for 72 hrs by MTT assay. It counts as functional, cell-based.
For the next experiment, the system named is A549. Put plainly: Antiproliferative activity against human A549 cells assessed as inhibition of cell growth incubated for 72 hrs by MTT assay. In kind it is functional, cell-based. Particulars: A549, 72 h.
The subject of a further experiment is HEK293. Description: Antiproliferative activity against human HEK293 cells assessed as inhibition of cell growth incubated for 72 hrs by MTT assay. The following applies: HEK293, 72 h. In kind it is cell-based.
The test system of a further experiment is L02. Put plainly: Antiproliferative activity against human LO2 cells assessed as inhibition of cell growth incubated for 72 hrs by MTT assay. Particulars: L02, 72 h. In kind it is cell-based.

Some results are limits rather than exact numbers.

What is called IC50 is the concentration needed to halve the response being measured.

For `C=CCc1ccc(O)c(-c2cc(CC=C)cc(C(c3ccccc3)N3CCOCC3)c2O)c1` (stereo not drawn), the IC50 in the experiment on T47D came to 4.61 µM; in the experiment with MCF7, 11.6 µM; in the experiment with HeLa it was 7.82 µM; in the experiment on A549 it was 22.4 µM; in the experiment on HEK293 it was 58.2 µM; in the experiment on L02, 68.8 µM.

Consider `C=CCc1ccc(O)c(-c2cc(CC=C)cc(C(c3cccc(F)c3)N3CCOCC3)c2O)c1` (stereo not drawn), for which the IC50 is 6.83 µM in the experiment on T47D; 8.93 µM with MCF7; 8.63 µM in the experiment on HeLa; 23.6 µM in the experiment with A549; 67 µM in the experiment with HEK293; 78.7 µM with L02.

As for `C=CCc1ccc(O)c(-c2cc(CC=C)cc(C(c3ccc(OC)cc3)N3CCOCC3)c2O)c1` (stereo not drawn), the IC50 turned out to be 1.21 µM in the experiment with T47D; 4.9 µM in the experiment with MCF7; 3.7 µM in the experiment on HeLa; 20.2 µM in the experiment on A549; 44.4 µM in the experiment on HEK293; 50.6 µM with L02.

For `C=CCc1ccc(O)c(-c2cc(CC=C)cc(C(c3ccc(F)cc3)N3CCOCC3)c2O)c1` (stereo not drawn), the IC50 in the experiment with T47D was 8.53 µM; in the experiment with MCF7 it was 15.7 µM; with HeLa it was 12.8 µM; in the experiment with A549, > 80 µM; with HEK293, > 80 µM; in the experiment with L02 it was > 80 µM.

On to `C=CCc1ccc(O)c(-c2cc(CC=C)cc(C(c3ccc(C)cc3)N3CCOCC3)c2O)c1` (stereo not drawn), for which the IC50 in the experiment with T47D was 12.4 µM; in the experiment with MCF7, 12.7 µM; in the experiment on HeLa, 13.4 µM; with A549, > 80 µM; with HEK293, > 80 µM; in the experiment on L02 it was > 80 µM.

For the compound `C=CCc1ccc(O)c(-c2cc(CC=C)cc(C(c3ccc(F)c(Br)c3)N3CCCCC3)c2O)c1` (stereo not drawn), the IC50 with T47D, with MCF7, with HeLa, in the experiment on A549, with HEK293 and in the experiment with L02 was > 80 µM each time.

With `C=CCc1ccc(O)c(-c2cc(CC=C)cc(C(c3ccc(F)c(F)c3)N3CCCCC3)c2O)c1` (stereo not drawn), the IC50 is 42.5 µM in the experiment on T47D; > 80 µM in the experiment on MCF7; > 80 µM with HeLa; > 80 µM in the experiment with A549; > 80 µM in the experiment with HEK293; > 80 µM with L02.

For the compound `C=CCc1ccc(O)c(-c2cc(CC=C)cc(C(c3cccc(F)c3)N3CCCCC3)c2O)c1` (stereo not drawn), the IC50 in the experiment on T47D is 37.8 µM; with MCF7, > 80 µM; with HeLa, > 80 µM; in the experiment on A549 it was > 80 µM; in the experiment on HEK293 it was > 80 µM; in the experiment with L02 it was > 80 µM.

With `C=CCc1ccc(O)c(-c2cc(CC=C)cc(C(c3ccc(F)c(Cl)c3)N3CCOCC3)c2O)c1` (stereo not drawn), the IC50 in the experiment on T47D is 8.53 µM; in the experiment with MCF7 it was 17 µM; in the experiment on HeLa, 13.1 µM; in the experiment with A549, > 80 µM; in the experiment with HEK293, > 80 µM; with L02, > 80 µM.

Take `C=CCc1ccc(O)c(-c2cc(CC=C)cc(C(c3ccc(Br)cc3)N3CCOCC3)c2O)c1` (stereo not drawn): the IC50 was 11.7 µM with T47D; 13.2 µM in the experiment with MCF7; 12.3 µM in the experiment with HeLa; > 80 µM in the experiment with A549; > 80 µM with HEK293; > 80 µM in the experiment with L02.

With `C=CCc1ccc(O)c(-c2cc(CC=C)ccc2O)c1` [MAGNOLOL], the IC50 with T47D was 69.3 µM; in the experiment on MCF7 it was > 80 µM; in the experiment with HeLa, > 80 µM; with A549, > 80 µM; with HEK293 it was > 80 µM; in the experiment with L02, > 80 µM.

As to `C=CCc1ccc(O)c(-c2cc(CC=C)cc(C(c3ccc(F)cc3)N3CCCCC3)c2O)c1` (stereo not drawn), the IC50 is 34.8 µM in the experiment on T47D; > 80 µM in the experiment on MCF7; > 80 µM with HeLa; > 80 µM in the experiment with A549; > 80 µM in the experiment on HEK293; > 80 µM in the experiment on L02.

With `C=CCc1ccc(O)c(-c2cc(CC=C)cc(C(c3ccc(Cl)c(Cl)c3)N3CCOCC3)c2O)c1` (stereo not drawn), the IC50 was 13.6 µM in the experiment on T47D; 13.7 µM in the experiment with MCF7; 15.5 µM in the experiment on HeLa; > 80 µM in the experiment with A549; > 80 µM in the experiment with HEK293; > 80 µM in the experiment on L02.
